Results from US10138211B2, “Crystalline forms of olaparib and manufacturing processes therefor” (ScinoPharm Taiwan, Ltd., priority 2016, dated 2018).
≈ marks a conversion by molar mass, not a printed value.

How the values were obtained:
[1] = Solubility of olaparib at 60° C. in solvents; format: physicochemical
Experimental: (§1) As used herein, the term “solvent” refers to a liquid substance capable of dissolving olaparib at a concentration of at least about 2.5% (w/w) at 60° C. The term “anti-solvent” refers to a liquid substance which is not capable of dissolving olaparib at a concentration of […] about 2.5% (w/w) at 60° C.

[2] = Solubility of olaparib at room temperature in solvents; format: physicochemical; details: for solubility: organic solvent or mixture
Experimental: as §1

**Q.** Which “Solubility of olaparib at 60° C.” value ([1]; ACN) does the source give for O=C(c1cc(Cc2n[nH]c(=O)c3ccccc23)ccc1F)N1CCN(C(=O)C2CC2)CC1 [olaparib, 4-[(3-[(4-cyclopropylcarbonyl)piperazin-4-yl]carbonyl)-4-fluorophenyl]methyl(2H)phthalazin-1-one] here?
**A.** Its value is <2.1 wt %.

**Q.** And the “Solubility of olaparib at 60° C.” value ([1]; Cyclohexane)?
**A.** Its value is <2.1 wt %.

**Q.** What about the “Solubility of olaparib at 60° C.” value ([1]; DMAc) of the same compound?
**A.** The value was >23.5 wt %.

**Q.** And the “Solubility of olaparib at 60° C.” value ([1]; EA)?
**A.** Its value is <1.8 wt %.

**Q.** What about the “Solubility of olaparib at 60° C.” value ([1]; EtOH) of the same compound?
**A.** The value was 2.6-2.9 wt %.

**Q.** And the “Solubility of olaparib at 60° C.” value ([1]; IPA)?
**A.** Its value is <2.1 wt %.

**Q.** What about the “Solubility of olaparib at 60° C.” value ([1]; MeOH) of the same compound?
**A.** Its value is 6.7-8.8 wt %.

**Q.** What about the “Solubility of olaparib at 60° C.” value ([1]; Pyridine) of the same compound?
**A.** The value was >21.5 wt %.

**Q.** What about the “Solubility of olaparib at 60° C.” value ([1]; THF) of the same compound?
**A.** The value was <1.9 wt %.

**Q.** And the “Solubility of olaparib at 60° C.” value ([1]; Toluene)?
**A.** Its value is <1.9 wt %.

**Q.** And the “Solubility of olaparib at 60° C.” value ([1]; Xylenes)?
**A.** The value was <1.9 wt %.

**Q.** What about the solubility ([1]; acetonitrile (ACN), organic solvent or mixture, ACN) of the same compound?
**A.** Its solubility is < 16.2 mg/mL.

**Q.** What about the solubility ([1]; ethanol (EtOH), organic solvent or mixture, EtOH) of the same compound?
**A.** The solubility was 21 to 23 mg/mL (≈ 48.3 to 52.9 mM).

**Q.** What about the solubility ([1]; isopropanol (IPA), organic solvent or mixture, IPA) of the same compound?
**A.** Its solubility is < 16.2 mg/mL.

**Q.** And the solubility ([1]; methanol (MeOH), organic solvent or mixture, MeOH)?
**A.** The solubility was 53 to 70 mg/mL (≈ 122 to 161 mM).

**Q.** What about the “Solubility of olaparib at 60° C.” value ([1]; n-butanol) of the same compound?
**A.** Its value is <2.1 wt %.

**Q.** What about the “Solubility of olaparib at 60° C.” value ([1]; n-heptane) of the same compound?
**A.** Its value is <2.4 wt %.

**Q.** What about the solubility ([1]; organic solvent or mixture, Cyclohexane) of the same compound?
**A.** The solubility was < 16.2 mg/mL.

**Q.** And the solubility ([1]; organic solvent or mixture, DMAc)?
**A.** Its solubility is > 220 mg/mL.

**Q.** And the solubility ([1]; organic solvent or mixture, EA)?
**A.** The solubility was < 16.2 mg/mL.

**Q.** What about the solubility ([1]; organic solvent or mixture, Pyridine) of the same compound?
**A.** The solubility was > 210 mg/mL.

**Q.** And the solubility ([1]; organic solvent or mixture, THF)?
**A.** Its solubility is < 16.9 mg/mL.

**Q.** What about the solubility ([1]; organic solvent or mixture, Toluene) of the same compound?
**A.** The solubility was < 16.9 mg/mL.

**Q.** What about the solubility ([1]; organic solvent or mixture, Xylenes) of the same compound?
**A.** The solubility was < 16.2 mg/mL.

**Q.** What about the solubility ([1]; organic solvent or mixture, n-butanol) of the same compound?
**A.** Its solubility is < 16.9 mg/mL.

**Q.** And the solubility ([1]; organic solvent or mixture, n-heptane)?
**A.** Its solubility is < 16.2 mg/mL.

**Q.** What about the “Solubility of olaparib at 60° C.” value ([1]; water) of the same compound?
**A.** The value was <1.6 wt %.

**Q.** And the solubility ([1]; water)?
**A.** The solubility was < 16.2 mg/mL.

**Q.** And the “Solubility of olaparib at room temperature” value ([2]; AcOH)?
**A.** The value was >20.0 wt %.

**Q.** What about the “Solubility of olaparib at room temperature” value ([2]; DMSO) of the same compound?
**A.** The value was >19.1 wt %.

**Q.** What about the solubility ([2]; acetic acid (AcOH), AcOH) of the same compound?
**A.** The solubility was > 210 mg/mL.

**Q.** And the solubility ([2]; DMSO)?
**A.** Its solubility is > 210 mg/mL.
